These are literature values, as cited in patent US5431925A, “Nutritive composition for prevention and therapy of infection diseases caused by immunosuppression” (Snow Brand Milk Products Co., Ltd., priority 1991, dated 1995).

For the series the following is noted: mouse.

`CC1=C(/C=C/C(C)=C/C=C/C(C)=C/C(=O)O)C(C)(C)CCC1` [retinoic acid]: the LD50 was ≥ 4,000 mg/kg. In the case of `CC1=C(/C=C/C(C)=C/C=C/C(C)=C/CO)C(C)(C)CCC1` [retinol], the LD50 is ≥ 4,100 mg/kg.
